Experimental data as given in patent US20090106858A1, “Isolation and Characterization of the Csb3-1 Mutant of Arabidopsis Thaliana and Use Thereof as a Regulator of Resistance in Plants to Diseases Caused by Biotrophic Pathogens” (priority 2005, published 2009).
Entries after “also recorded” stand apart in the source; their conditions may differ.

Tests used:
[1] = tested on: P69C-GUS; details: wild Arabidopsis plants, local application (Jordá et al., 2000); cited from earlier work
[2] = tested on: PR-1 and GST6 marker genes; assay: RT-PCR analysis of SA regulated marker genes PR-1 and GST6; format: in vivo, Arabidopsis thaliana; details: csb3-1 seedlings, 25 μM
Method: (§1) FIG. 8. Pharmacological complementation with phosmidomicine of the resistance increase in csb3-1 plants. • (A) Wild seedlings (wt) and csb3-1 seedlings of Arabidopsis were sprayed once at 48 hours and 24 hours before exposing them to Pst DC3000 with a buffer solution complemented with 25 μM or 50 μM dilution (+phosm) the controls were treated in a similar manner with buffer solution alone. The plants were exposed to Pst DC3000 and the pathogen's growth was recorded at days 0, 3 and 5 after inoculation (dpi). • (B) The effect of the phosmidomicine treatment (25 μM, treated as described in point (A) on the constitutive expression of P69C-GUS in csb3-1 seedlings (right) as compared with csb3-1 seedlings treated with the buffer solution alone (left). • (C) The effect of the phosmidomicine treatment (25 μM, treated as described in point (A) on the constitutive expression of SA regulated marker genes in csb3-1 seedlings of Arabidopsis as compared with csb3-1 seedlings treated with the buffer solution alone.
To analyze the level of genic expression by inverse transcriptase mediated PCR, the total RNA samples from leaf tissue were prepared using the Totally RNA kit made by Ambion (Austin, Tex.). Inverse transcription was done using the RT kit for PCR made by Clontech (Palo Alto, Calif.). […]

[3] = tested on: Pseudomonas syringae pv. tomato DC3000; assay: Pst DC3000 bacterial growth in Arabidopsis seedlings sprayed with phosmidomicine before inoculation; format: in vivo, Arabidopsis thaliana
Text: An increase in substrate (MEcPP) accumulation of the CSB3/HDS enzyme or of any of the intermediate metabolic products that precede MEcPP accumulation in the MEP pathway (FIG. 6) could be responsible for the increased resistance of csb3-1 plants. Alternatively, a decrease of product synthesis (HMBPP) of the same enzyme could compromise the synthesis and accumulation of final products (IPP and DMAPP) (FIG. 6) that in turn could compromise the later biosynthesis of the different isoprenoids that must be derived from the MEP pathway. This last possibility can also be responsible for the resistance increase of the csb3-1 plants. In order to study any of these possibilities the impact of an inhibitor in the MEP pathway for increased resistance of csb3-1 plants to Pst DC3000 was studied. To approach the question in this manner phosmidomicine [3-(N-formil-N-hydroxyamino)-propylphosphonic acid] was used as well as a DXR competitive inhibitor, the enzyme that controls the second stage involved in the MEP pathway (FIG. 6) and reduces the levels of the final products obtained by this pathway (that is, IPP and DMAPP) (Schwender, J., Muller, C., Zeidler, J., and Lichtenthaler, H. K. (1999). Cloning and heterologous expression of a cDNA encoding 1-deoxy-D-xylulose-5 phosphate reductoisomerase of Arabidopsis thaliana. FEBS Lett. 455, 140-144; Laule, O., Furholz, A., Chang, H., Zhu, T., Wang, X., Heifetz, P. B., Gruissem, W., and Lange, M. (2003). Crosstalk between cytosolic and plastidial pathways of isoprenoid biosynthesis in Arabidopsis thaliana. Proc. Natl. Acad. Sci. USA 100, 6866-6871). In order to separate this response from the response derived from an arrest of the chloroplast development, phosmidomicine treatments were applied in much smaller dosages and during smaller periods of times than those used experimentally by others (Laule et al., 2003). Wild seedlings and csb3-1 seedlings were sprayed once with a 25 μM or a 50 μM dilution of phosmidomicine 48 hours and 24 hours before inoculation with Pst DC3000 and the subsequent bacterial growth was recorded in inoculated plants at 0.3 and 5 d.p.i. Treated plants were also studied to determine the effect on the normal expression of the P69C-GUS gene. […] Greater dosages of this inhibitor were not tested, since they could have a collateral developmental and/or homeostatic effect in the chloroplast that could lead to undesired side effects.
FIG. 8. […] The plants were exposed to Pst DC3000 and the pathogen's growth was recorded at days 0, 3 and 5 after inoculation (dpi). • (B) The effect of the phosmidomicine treatment (25 μM, treated as described in point (A) on the constitutive expression of P69C-GUS in csb3-1 seedlings (right) as compared with csb3-1 seedlings treated with the buffer solution alone (left). • (C) The effect of the phosmidomicine treatment (25 μM, treated as described in point (A) on the constitutive expression of SA regulated marker genes in csb3-1 seedlings of Arabidopsis as compared with csb3-1 seedlings treated with the buffer solution alone.
Pseudomonas syringae pv. tomato DC3000 was grown and was then prepared to be inoculated as previously described (Mayda et al., 2000). […] A high throughput method for quantifying growth of phytopathogenic bacteria in Arabidopsis thaliana. […]

[4] = tested on: P69C-GUS; assay: Histochemical GUS staining of P69C-GUS indicator gene expression; format: in vivo, Arabidopsis thaliana; details: csb3-1 seedlings, 25 μM
Method: as §1
The mutant line csb3-1 used in these experiments had been subjected to backcrossing at least four times with the original wild line. Plants were made to grow in a growth chamber (19-23° C., fluorescent light at 100 μEm^−2 seg^−1) in a cycle of 10 hours of light to 14 hours of darkness. […]

SMILES | expression of P69C-GUS after local application [1] | effect on constitutive expression of PR-1 and GST6 marker genes [2] | effect on increased resistance of csb3-1 plants to Pst DC3000 (bacterial growth) ([3]; csb3-1 plants, 5 μM treatments) | complementation of the resistance increase phenotype associated to csb3-1 ([3]; csb3-1 plants, summary statement) | effect on increased resistance of csb3-1 plants to Pst DC3000 (bacterial growth) ([3]; csb3-1 seedlings, one 50 μM treatment) | effect on increased resistance of csb3-1 plants to Pst DC3000 (bacterial growth) ([3]; csb3-1 seedlings, sprayed once with 25 μM 48 h and 24 h before inoculation) | effect on normal resistance of wild plants to Pst DC3000 (bacterial growth) ([3]; wild plants, 50 μM) | effect on constitutive expression of the P69C-GUS transgene [4]
O=C(O)c1ccccc1O [SA, Salicylic acid] | induces the expression of the P69C-GUS | – | – | – | – | – | – | –
O=CN(O)CCCP(=O)(O)O [phosmidomicine, 3-(N-formil-N-hydroxyamino)-propylphosphonic acid] | – | regulation by reduction of the constitutive expression | provoked a reduction in the increased resistance of the csb3-1 plants that was only observed 5 days after inoculation | complement completely the resistance increase phenotype associated to csb3-1 | completely suppressed the resistance increase attributed to the csb3-1 mutation | noticeably reduce resistance increase to Pst DC3000 | made the plants more susceptible to this virulent pathogen; also recorded: resulted in greater rates of bacterial growth | regulation by reduction of the constitutive expression of the P69G-GUS transgene
